This note sets out measurements from US20210177828A1, “TAM FAMILY KINASE /AND CSF1R KINASE INHIBITOR AND USE THEREOF” (Nanjing Transthera Biosciences Co., Ltd., priority 2018, published 2021).

Data set [1] can be described thus: Liver microsomal stability. Format: in vitro ADME. The conditions noted are these: mouse liver microsomes, 0.5 mg protein/mL, 1 μM compound. The method, then: An appropriate amount of the compound was precisely weighed and dissolved in DMSO to prepare a 5.0 mM stock solution. The 5.0 mM stock solution was diluted with DMSO to 1.0 mM, and finally diluted with water to a 10 μM working solution of the test sample for use (the DMSO content in the reaction system was 0.1%).
(1) The liver microsomes (20 mg protein/mL) were taken from a −80° C. refrigerator, pre-incubated on a 37° C. water bath thermostatic oscillator for 3 min, and thawed for use.
(2) An incubation system (without compound and β-NADPH) was prepared according to “composition of the incubation system” described above, and pre-incubated on a 37° C. water bath thermostatic oscillator for 2 min.
(3) Control group (without β-NADPH): 30 μL of water and 30 μL of compound working solution (10 μM) were added to 240 μL of the incubation system in step (2), and the reaction system was vortexed for 30 s and thoroughly mixed. The total volume of the reaction system was 300 μL. The sample was duplicated. The reaction solution was placed on a 37° C. water bath thermostatic oscillator for incubation, and timing was started. The sampling was conducted at 0 min and 60 min.
(4) Sample group: 70 μL of β-NADPH solution (10 mM) and 70 μL of compound working solution (10 μM) were added to 560 μL of the incubation system in step (2), and the total volume of the reaction system was 700 μL. The reaction solution was vortexed for 30 s and thoroughly mixed. The sample was duplicated. The reaction solution was placed on a 37° C. water bath thermostatic oscillator for incubation, and timing was started. The sampling was conducted at 0 min, 5 min, 10 min, 20 min, 30 min and 60 min.
(5) The reaction solution was vortexed for 3 min, and centrifuged at 12,000 rpm for 5 min.
(6) 50 μL of the supernatant was added to 150 μL of water, and the resulting solution was thoroughly vortexed and analyzed by LC/MS/MS.

The target in a further data set is T1, H1299 cell pAxl (Homo sapiens, UniProt P30530).
T1 construct: endogenous in cells; host or cells: H1299
T1 sequence (P30530 26-894): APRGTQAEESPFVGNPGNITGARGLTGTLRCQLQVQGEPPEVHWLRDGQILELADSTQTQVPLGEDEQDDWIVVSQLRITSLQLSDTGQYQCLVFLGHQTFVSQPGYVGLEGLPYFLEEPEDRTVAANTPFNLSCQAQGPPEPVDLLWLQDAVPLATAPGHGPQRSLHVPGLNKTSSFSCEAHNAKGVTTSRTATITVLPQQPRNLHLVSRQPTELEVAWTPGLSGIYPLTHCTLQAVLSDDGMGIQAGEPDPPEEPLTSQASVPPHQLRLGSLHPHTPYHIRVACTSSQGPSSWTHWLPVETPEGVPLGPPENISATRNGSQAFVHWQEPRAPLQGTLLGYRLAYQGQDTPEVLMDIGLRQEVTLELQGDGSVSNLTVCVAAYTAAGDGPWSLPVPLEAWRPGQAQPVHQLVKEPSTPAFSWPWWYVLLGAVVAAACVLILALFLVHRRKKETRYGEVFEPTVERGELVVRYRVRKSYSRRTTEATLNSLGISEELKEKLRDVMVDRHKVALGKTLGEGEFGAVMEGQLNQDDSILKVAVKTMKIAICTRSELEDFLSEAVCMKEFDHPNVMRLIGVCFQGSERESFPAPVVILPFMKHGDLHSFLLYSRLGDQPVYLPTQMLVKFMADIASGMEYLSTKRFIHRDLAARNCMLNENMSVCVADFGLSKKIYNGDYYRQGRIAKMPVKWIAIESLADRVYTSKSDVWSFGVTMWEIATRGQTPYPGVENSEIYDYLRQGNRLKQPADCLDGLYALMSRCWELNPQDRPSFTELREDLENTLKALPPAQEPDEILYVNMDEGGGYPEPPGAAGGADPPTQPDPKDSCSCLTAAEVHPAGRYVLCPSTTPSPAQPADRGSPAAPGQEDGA
Kind of data set: Inhibitory activity on cell pAxl, H1299 cells, hGAS6 stimulation, Western Blot. Format: cell-based. The following applies: hGAS6 200 ng/mL. The method, then:
H1299 is a non-small cell lung cancer cell.
H1299 cells were inoculated to a 6-well plate (containing 10% FBS 1640 medium, 5×10^5 cells per well) and adherently cultivated at 37° C., and 5% CO2 for 18 hrs. The cells were starved overnight, and then compound solutions with different concentrations were added. The compounds had final concentrations of 1.1, 3.3, 10 and 30 nM. […] There was a medium containing 1‰DMSO in the negative control well. The cells were incubated at 37° C., and 5% CO2 for 60 min, and then hGAS6 (R&D, final concentration: 200 ng/mL) was added to each well. The cells were further incubated for 60 min, and then the total protein of the cells was extracted for Western Blot experiment. IC50 values were calculated with GraphPad 5.0 software, and the inhibitory activities of the compounds on cell pAxl were detected.
A general note: A western blot detects proteins with antibodies after separation by electrophoresis.

Consider `COc1cc2nccc(Oc3ccc(NC(=O)c4cn(C5CCOCC5)cc(-c5ccc(F)cc5)c4=O)nc3)c2cc1OC` [Compound 27, N-(5-((6,7-dimethoxyquinolin-4-yl)oxy)pyridin-2-yl)-5-(4-fluorophenyl)-4-oxo-1-(tetrahydro-2H-pyran-4-yl)-1,4-dihydropyridin-3-carboxamide], for which, in data set [1], the half-life at 1 μM is 5.02 h and the microsomal CLint at 1 μM is 4.6 µL/min/mg. For the same molecule, the IC50 at H1299 cell pAxl is < 1.1 nM.
For `COc1cc2nccc(Oc3ccc(NC(=O)c4nn(C5CCOCC5)cc(-c5ccc(C)cc5)c4=O)cc3F)c2cc1OC` [Compound 28] the same measures were 1.44 h, 16 µL/min/mg and 1.1 nM.
For `Cc1ccc(-c2cn(C3CCOCC3)nc(C(=O)Nc3ccc(Oc4ccnc5cc6c(cc45)OCO6)cn3)c2=O)cc1` [Compound 29, N-(5-([1,3]dioxolo[4,5-g]quinolin-8-yloxy)pyridin-2-yl)-4-oxo-1-(tetrahydro-2H-pyran-4-yl)-5-(p-tolyl)-1,4-dihydropyridazin-3-carboxamide] the same measures were 1.6 h, 14.4 µL/min/mg and 30 nM.
For `Cc1ccc(-c2cn(C3CCOCC3)nc(C(=O)Nc3ccc(Oc4ccnc5cc6c(cc45)OCCO6)cn3)c2=O)cc1` [Compound 30, N-(5-((2,3-dihydro-[1,4]dioxino[2,3-g]quinolin-9-yl)oxy)pyridin-2-yl)-4-oxo-1-(tetrahydro-2H-pyran-4-yl)-5-(p-tolyl)-1,4-dihydropyridazin-3-carboxamide] the same measures were 1.38 h, 16.8 µL/min/mg and > 10 nM.
In data set [1], `COc1cc2nccc(Oc3cnc(NC(=O)c4cn(C5CCOCC5)cc(-c5ccc(F)cc5)c4=O)nc3)c2cc1OC` [Compound 31, N-(5-((6,7-dimethoxyquinolin-4-yl)oxy)pyrimidin-2-yl)-5-(4-fluorophenyl)-4-oxo-1-(tetrahydro-2H-pyran-4-yl)-1,4-dihydropyridin-3-carboxamide] registered a half-life at 1 μM of 6.42 h and a microsomal CLint at 1 μM of 3.6 µL/min/mg. At H1299 cell pAxl, the half-inhibitory concentration (IC50) was < 3.3 nM.
In data set [1], `COc1cc2nccc(Oc3ccc(NC(=O)c4cc(CC5CCOCC5)cn(-c5ccc(F)cc5)c4=O)nc3)c2cc1OC` [Compound 32, N-(5-((6,7-dimethoxyquinolin-4-yl)oxy)pyridin-2-yl)-1-(4-fluorophenyl)-2-oxo-5-((tetrahydro-2H-pyran-4-yl)methy 1)-1,2-dihydropyridin-3-carboxamide] registered a half-life at 1 μM of 1.39 h and a microsomal CLint at 1 μM of 16.6 µL/min/mg. Further, the IC50 against H1299 cell pAxl is < 1.1 nM.
For `COc1cc2nccc(Oc3cnc(NC(=O)c4nn(C5CCOCC5)cc(-c5ccc(F)cc5)c4=O)nc3)c2cc1OC` [Compound 33, N-(5-((6,7-dimethoxyquinolin-4-yl)oxy)pyrimidin-2-yl)-5-(4-fluorophenyl)-4-oxo-1-(tetrahydro-2H-pyran-4-yl)-1,4-dihydropyridazin-3-carboxamide] the same measures were 4.82 h, 4.8 µL/min/mg and 3.3 nM.
For `COc1cc2nccc(Oc3ccc(NC(=O)c4nn(C5CCOCC5)cc(-c5ccc(F)cc5)c4=O)nc3)c2cc1OC` [Compound 34, N-(5-((6,7-dimethoxyquinolin-4-yl)oxy)pyridin-2-yl)-5-(4-fluorophenyl)-4-oxo-1-(tetrahydro-2H-pyran-4-yl)-1,4-dihydropyridazin-3-carboxamide] the same measures were 5.25 h, 4.4 µL/min/mg and < 1.1 nM.

Broadly, the half-life is how long it takes for the measured level to halve. Lower therefore signals rapid decline. One may read the microsomal CLint as the rate of metabolic loss divided by the concentration. The IC50 is the concentration that gives 50% inhibition. High values mean a need for much substance, low ones inhibition by little substance.
